Measured values published in patent publication US20030091553A1 (priority 2001, published 2003).
Where two headings read alike, the source gives them in different places.

Assays:
[1] = test system: drug-induced liver damage; conditions: daily oral dose of 10 mg, patient on phenytoin three times a day
Description: An epileptic taking phenytoin three times a day to control seizures is supplemented with a daily oral dose of 10 mg of histamine dihydrochloride. Prior to supplementation with histamine dihydrochloride, the epileptic experiences liver damage as a consequence of taking phenytoin as confirmed by liver biopsy.

[2] = test system: CD3+T-cells, CD3-/56+ NK-cells and CD3+/56+ NK/T-cells; conditions: all cell types; induced by autologous monocytes or granulocytes; p<0.001
Description: (§1) This example illustrates the effect of histamine on the lymphocytes isolated from human liver. […] All data are the mean±s.e.m. (n=15-30 blood donors).

[3] = Effect of the duration of administration of histamine; conditions: administered over longer than about 30 minutes
[4] = test system: early alcohol-induced liver injury
Description: (§2) Animals and Treatments. Female Wistar rats weighing between 200 and 275 g were fed ad libitum continuously for up to 4 weeks a liquid diet (Dyets, Bethlehem, Pa. #710034) in which 35% of the calories were from corn oil, […], 5% were from vitamins and minerals, 11% were from maltose-dextrin, and 36% were from ethanol. An isocaloric maltose-dextrin diet (Dyets, #710270) was used for control. Rats were given a single dose of ethanol (5 g/kg body weight intragastrically) using an 18-gauge oral biomedical device (Popper & Sons, Inc., New Hyde Park, N.Y.) diluted in PBS (pH 7.2; GIBCO Laboratories Life Technologies Inc., Grand Island, N.Y.) every 24 hours. Control animals were gavaged with PBS alone. Either histamine dihydrochloride (0.5 mg/kg or 5.0 mg/kg; Sigma Chemical Co., St. Louis, Mo.) or vehicle (PBS, pH 7.4; GIBCO Laboratories Life Technologies Inc., Grand Island, N.Y.) was administered by subcutaneous injection twice daily for 4 weeks. Body weights of each rat were measured daily. Rats were housed in a pathogen-free facility and the institutional animal care and use committee approved the surgical procedures used in this study.
Pathological Evaluation. After 2 and 4 weeks of ethanol treatment, livers were formalin fixed, embedded in paraffin, and stained with hematoxylin and eosin to assess steatosis, inflammation, and necrosis. Liver pathology was scored in a blinded manner by an outside expert as follows:
1. Degree of steatosis, score 0-4 (based on % of hepatocytes containing lipid)
2. Degree of inflammatory cell infiltration, score 0-4
3. Degree of degeneration and necrosis, score 0-4
The points for each grade of histological evaluation were compiled into a total score for each liver.
Severity scores for each finding in each group were summed and then divided by the number of animals evaluated per group. The groups were assigned scores as follows: None=0; […].

[5] = test system: early alcohol-induced liver injury; remark: listed apart in the source
Description: as §2

[6] = both histamine treated groups versus ethanol alone treated group
Description: as §2

[7] = test system: drug-induced liver damage; conditions: oral tablet with isoniazid, six to twelve months, versus isoniazid alone
Description: An individual presenting with tuberculosis is prescribed an oral tablet comprising isoniazid and an effective dose of histamine for a period of six to twelve months. During the treatment period, the patient is monitored by a physician and lab tests to check the status of the patient's liver in response to the medication are performed.

[8] = test system: hepatotoxic effect of comfrey; experiment: Catalase supplement in an individual consuming comfrey; type: in vivo, human; conditions: 8 mg/day
Description: The common herb comfrey can be administered as a poultice or tea drink to as an expectorant, demulcent, and/or tonic. However, consumption of comfrey has been linked to liver damage. In order to minimize the hepatotoxic effect of comfrey, an individual consuming comfrey as an herbal remedy is supplemented with 8 mg/day of catalase.

NK-cells = conditions: 25 μM hydrogen peroxide, n=8, mean±s.e.m.
Description: as §1

NK/T-cells = conditions: 25 μM hydrogen peroxide, n=8, mean±s.e.m.
Description: as §1

T-cells = conditions: 25 μM hydrogen peroxide, n=8, mean±s.e.m.
Description: as §1

[9] = test system: hepatic tissue damage secondary to pancreatitis; conditions: 100 μg/kg per day over one to two weeks, acute pancreatitis
Description: A patient presenting with acute pancreatitis is identified. The patient is administered 100 μg/kg histamine diphosphate per day over a period of one to two weeks. A liver biopsy is performed upon resolution of the pancreatitis.

Cl.Cl.NCCc1c[nH]cn1 [histamine dihydrochloride]
liver damage [1]: further damage to the tissue of the liver is prevented

NCCc1c[nH]cn1 [Histamine, histamine]
apoptosis of lymphocytes [2]: significantly prevented | efficacy [3]: decreased or lack of efficacy | liver injury ([4]; 0.5 mg/kg or 5 mg/kg twice daily s.c., highest dose most effective): blunted liver injury in a dose dependent manner | Histologic Findings in Liver, Mean Group Severity Scores, Total Overall Score ([4]; High Histamine (5.0 mg/kg s.c. twice daily), Week 2 of ethanol treatment): 2.00 | Histologic Findings in Liver, Mean Group Severity Scores, Total Overall Score ([4]; High Histamine (5.0 mg/kg s.c. twice daily), Week 4 of ethanol treatment): 2.57 | Histologic Findings in Liver, Mean Group Severity Scores, Total Overall Score ([4]; Low Histamine (0.5 mg/kg s.c. twice daily), Week 2 of ethanol treatment): 3.33 | Histologic Findings in Liver, Mean Group Severity Scores, Total Overall Score ([4]; Low Histamine (0.5 mg/kg s.c. twice daily), Week 4 of ethanol treatment): 3.17 | appearance of excised livers ([4]; histamine treated, ethanol-fed rats): comparative in appearance to livers from the non-ethanol treated group | pathology scores and serum transaminase levels ([5]; 0.5 mg/kg or 5 mg/kg twice daily s.c.): normalization | ALT activity ([5]; preliminary results, ethanol control group 2-3 fold increase): somewhat normal ALT activity | recovery of body weight [6]: recovered their body weights more quickly | liver damage by laboratory tests [7]: no damage to the patient's liver

catalase
hepatic injury [8]: No hepatic injury is observed

OO [hydrogen peroxide]
cells that became apoptotic (NK-cells): 65±7% | cells that became apoptotic (NK/T-cells): 78±7% | cells that became apoptotic (T-cells): 35±5%

histamine diphosphate
damage to hepatic tissue (liver biopsy) [9]: prevents damage to hepatic tissue | incidence of infection associated with pancreatitis [9]: lowers the incidence of infection associated with pancreatitis
